Laboratory results: publication PMC9870012 (Journal of Enzyme Inhibition and Medicinal Chemistry, 2023)
pIC50, pKi: −log10 of the molar value.

Experiments:
ADAM17 = ADAM17 (Homo sapiens, UniProt P78536); assay: Off-target metalloprotease inhibition, ADAM17; assay type: biochemical; settings: for remaining activity at 10 µM: read-out: Residual activity ADAM17
Cell viability assay [1] = assay type: cell-based; settings: human, SH-SY5Y cells
MMP13 = MMP13 (Homo sapiens, UniProt P45452); assay: Off-target metalloprotease inhibition, MMP13; assay type: biochemical; settings: read-out: Residual activity MMP13
MMP2 = target: T1, MMP2 (Homo sapiens, UniProt P08253); assay: Off-target metalloprotease inhibition, MMP2; assay type: biochemical; settings: for remaining activity at 10 µM: read-out: Residual activity MMP2
T1 sequence (P08253 110-660): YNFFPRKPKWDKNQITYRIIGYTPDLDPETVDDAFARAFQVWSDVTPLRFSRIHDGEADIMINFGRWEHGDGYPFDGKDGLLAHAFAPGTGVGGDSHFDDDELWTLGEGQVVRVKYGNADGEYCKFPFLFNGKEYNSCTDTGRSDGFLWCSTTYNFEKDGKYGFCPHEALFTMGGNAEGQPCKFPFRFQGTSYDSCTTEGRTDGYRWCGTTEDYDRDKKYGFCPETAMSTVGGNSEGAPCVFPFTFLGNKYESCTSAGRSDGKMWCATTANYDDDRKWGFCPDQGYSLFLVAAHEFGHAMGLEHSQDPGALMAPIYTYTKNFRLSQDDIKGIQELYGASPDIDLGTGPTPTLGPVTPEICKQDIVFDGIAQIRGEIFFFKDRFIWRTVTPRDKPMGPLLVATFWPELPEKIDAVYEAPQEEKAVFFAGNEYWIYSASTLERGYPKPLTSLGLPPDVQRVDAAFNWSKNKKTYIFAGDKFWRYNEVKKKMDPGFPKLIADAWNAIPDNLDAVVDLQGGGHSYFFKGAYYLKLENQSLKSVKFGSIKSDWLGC

Cell viability assay [2] = assay type: cell-based; settings: human, Hep-G2 cells
human meprin α = target: T2, human meprin α (Homo sapiens, UniProt Q16819); assay type: biochemical; settings: for pKi: Ki(app) Meprin α, geometric mean of three independent experiments with standard deviation factor; for SF: selectivity factor (Ki(app) meprin β/Ki(app) meprin α): meprin α over meprin β
T2 sequence (Q16819 66-746): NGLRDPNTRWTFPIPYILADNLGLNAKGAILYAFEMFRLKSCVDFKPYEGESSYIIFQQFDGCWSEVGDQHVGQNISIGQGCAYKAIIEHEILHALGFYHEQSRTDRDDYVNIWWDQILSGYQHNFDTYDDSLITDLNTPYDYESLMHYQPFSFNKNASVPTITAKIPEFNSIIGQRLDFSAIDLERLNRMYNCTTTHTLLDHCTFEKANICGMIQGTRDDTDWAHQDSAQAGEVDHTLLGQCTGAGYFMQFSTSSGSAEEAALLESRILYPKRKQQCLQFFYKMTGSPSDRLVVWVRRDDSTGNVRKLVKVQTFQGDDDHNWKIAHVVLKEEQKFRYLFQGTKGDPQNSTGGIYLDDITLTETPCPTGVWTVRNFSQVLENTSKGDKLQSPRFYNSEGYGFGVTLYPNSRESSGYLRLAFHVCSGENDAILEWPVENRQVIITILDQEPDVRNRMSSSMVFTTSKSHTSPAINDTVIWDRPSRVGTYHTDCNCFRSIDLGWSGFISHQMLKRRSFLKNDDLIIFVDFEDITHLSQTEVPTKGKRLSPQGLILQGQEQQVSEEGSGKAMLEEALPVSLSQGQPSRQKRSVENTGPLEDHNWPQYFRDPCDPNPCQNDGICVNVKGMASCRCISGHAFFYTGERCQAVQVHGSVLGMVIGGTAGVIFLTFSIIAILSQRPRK

MMP9 = MMP9 (Homo sapiens, UniProt P14780); assay: Off-target metalloprotease inhibition, MMP9; assay type: biochemical; settings: read-out: Residual activity MMP9
ADAM10 = target: T3, ADAM10 (Homo sapiens, UniProt O14672); assay: Off-target metalloprotease inhibition, ADAM10; assay type: biochemical; settings: for remaining activity at 10 µM: read-out: Residual activity ADAM10
T3 sequence (O14672 214-748): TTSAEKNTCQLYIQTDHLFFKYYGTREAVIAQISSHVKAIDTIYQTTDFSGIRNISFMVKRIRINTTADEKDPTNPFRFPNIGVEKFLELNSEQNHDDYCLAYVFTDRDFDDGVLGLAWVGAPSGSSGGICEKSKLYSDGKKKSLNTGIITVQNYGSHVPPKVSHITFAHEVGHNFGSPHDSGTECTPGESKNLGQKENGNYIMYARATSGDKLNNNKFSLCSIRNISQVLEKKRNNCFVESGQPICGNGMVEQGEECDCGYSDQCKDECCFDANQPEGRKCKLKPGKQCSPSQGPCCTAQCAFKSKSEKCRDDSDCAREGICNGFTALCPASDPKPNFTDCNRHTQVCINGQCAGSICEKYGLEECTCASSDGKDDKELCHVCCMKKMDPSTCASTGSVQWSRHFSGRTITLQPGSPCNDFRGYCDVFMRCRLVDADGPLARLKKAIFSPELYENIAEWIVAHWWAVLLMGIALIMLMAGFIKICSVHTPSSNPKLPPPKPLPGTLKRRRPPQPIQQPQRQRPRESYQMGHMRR

human meprin β = target: T4, human meprin β (Homo sapiens, UniProt Q16820); assay type: biochemical; settings: Ki(app) Meprin β, geometric mean of three independent experiments with standard deviation factor
T4 sequence (Q16820 62-701): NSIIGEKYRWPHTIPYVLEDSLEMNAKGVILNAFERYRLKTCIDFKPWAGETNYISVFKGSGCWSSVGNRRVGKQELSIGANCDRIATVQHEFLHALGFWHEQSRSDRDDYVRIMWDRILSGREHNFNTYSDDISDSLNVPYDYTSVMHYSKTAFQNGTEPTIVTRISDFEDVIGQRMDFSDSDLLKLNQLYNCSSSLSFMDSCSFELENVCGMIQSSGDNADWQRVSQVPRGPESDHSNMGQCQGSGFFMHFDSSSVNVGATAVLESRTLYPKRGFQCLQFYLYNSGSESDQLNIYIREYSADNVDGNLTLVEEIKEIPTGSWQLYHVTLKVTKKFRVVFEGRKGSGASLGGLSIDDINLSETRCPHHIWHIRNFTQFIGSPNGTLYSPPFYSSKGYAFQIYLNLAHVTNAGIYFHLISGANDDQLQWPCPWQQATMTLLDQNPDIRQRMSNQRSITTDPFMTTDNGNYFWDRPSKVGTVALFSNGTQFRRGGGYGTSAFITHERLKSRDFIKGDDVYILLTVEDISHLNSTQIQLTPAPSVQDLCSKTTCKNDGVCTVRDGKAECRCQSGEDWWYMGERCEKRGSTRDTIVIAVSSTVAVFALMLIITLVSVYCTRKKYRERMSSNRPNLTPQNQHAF

ADAM17, sequence (P78536 215-824): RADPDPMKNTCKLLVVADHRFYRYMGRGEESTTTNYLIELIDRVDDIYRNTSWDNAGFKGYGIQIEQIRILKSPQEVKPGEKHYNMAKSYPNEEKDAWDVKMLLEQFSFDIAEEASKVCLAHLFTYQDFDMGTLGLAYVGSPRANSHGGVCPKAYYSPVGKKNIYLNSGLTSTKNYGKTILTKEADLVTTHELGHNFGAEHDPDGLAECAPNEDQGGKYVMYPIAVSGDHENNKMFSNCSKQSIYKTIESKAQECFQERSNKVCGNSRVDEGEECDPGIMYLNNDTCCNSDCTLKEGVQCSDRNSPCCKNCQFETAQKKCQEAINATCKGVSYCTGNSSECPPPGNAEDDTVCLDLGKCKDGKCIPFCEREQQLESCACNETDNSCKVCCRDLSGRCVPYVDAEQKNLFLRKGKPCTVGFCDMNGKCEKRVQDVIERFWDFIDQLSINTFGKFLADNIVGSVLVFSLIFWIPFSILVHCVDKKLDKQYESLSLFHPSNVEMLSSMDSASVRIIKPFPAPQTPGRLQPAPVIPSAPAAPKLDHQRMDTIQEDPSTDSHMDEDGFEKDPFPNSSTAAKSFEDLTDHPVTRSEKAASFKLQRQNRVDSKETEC
MMP9, sequence (P14780 107-707 limits assumed): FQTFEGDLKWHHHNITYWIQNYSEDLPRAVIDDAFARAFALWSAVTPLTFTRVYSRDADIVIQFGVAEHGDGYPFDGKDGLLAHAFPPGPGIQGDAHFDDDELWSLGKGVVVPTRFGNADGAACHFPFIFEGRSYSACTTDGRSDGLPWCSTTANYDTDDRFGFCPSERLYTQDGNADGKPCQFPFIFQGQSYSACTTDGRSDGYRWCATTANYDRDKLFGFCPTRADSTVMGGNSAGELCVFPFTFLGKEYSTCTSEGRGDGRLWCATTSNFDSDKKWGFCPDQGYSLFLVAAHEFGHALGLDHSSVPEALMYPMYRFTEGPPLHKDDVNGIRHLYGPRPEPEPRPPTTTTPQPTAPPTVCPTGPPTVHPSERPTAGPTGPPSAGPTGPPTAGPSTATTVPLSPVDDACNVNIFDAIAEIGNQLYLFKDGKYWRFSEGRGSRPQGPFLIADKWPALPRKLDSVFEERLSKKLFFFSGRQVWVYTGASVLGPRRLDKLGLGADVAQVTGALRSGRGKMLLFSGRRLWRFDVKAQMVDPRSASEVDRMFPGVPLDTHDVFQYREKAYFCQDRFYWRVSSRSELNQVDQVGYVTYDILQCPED

| pIC50 (ADAM17) | remaining activity at 10 µM (ADAM17) [%] | remaining activity at 10 µM (MMP13) [%] | remaining activity at 10 µM (MMP2) [%] | pKi (human meprin α) | SF: selectivity factor (Ki(app) meprin β/Ki(app) meprin α) (human meprin α) | remaining activity at 10 µM (MMP9) [%] | remaining activity at 10 µM (ADAM10) [%] | pIC50 (ADAM10) | pIC50 (MMP2) | pKi (human meprin β) | Compound | viability at 24 h, 30 µM (Cell viability assay [1]) [%] | viability at 24 h, 30 µM (Cell viability assay [2]) [%] |
| --- | --- | --- | --- | --- | --- | --- | --- | --- | --- | --- | --- | --- | --- |
| 5.64 | 21 | 78 | 77 | 9.22 | 508 | 74 | 69 |  |  |  | O=C(Cc1c(-c2ccccc2)nn(Cc2ccc3c(c2)OCO3)c1-c1ccccc1)NO [21f, 2-[1-(1,3-Benzodioxol-5-ylmethyl)-3,5-diphenyl-pyrazol-4-yl]ethanehydroxamic acid] | 88 | 103 |
| 5.02 | 57 |  |  | 9.22 |  | 63 | 62 | 4.92 |  |  | O=C(Cc1c(-c2ccc3c(c2)OCO3)n[nH]c1-c1ccc2c(c1)OCO2)NO [16a, 2-[3,5-Bis(1,3-benzodioxol-5-yl)-1H-pyrazol-4-yl]ethanehydroxamic acid] |  |  |
| 5.13 | 51 | 71 | 41 | 8.96 | 99 | 72 | 59 | 4.86 | 5.28 |  | O=C(Cc1c(-c2ccc3c(c2)OCO3)n[nH]c1-c1ccccc1)NO [14f, 2-[3-(1,3-Benzodioxol-5-yl)-5-phenyl-1H-pyrazol-4-yl]ethanehydroxamic acid] | 90 | 96 |
|  | 65 | 101 | 83 | 9.15 | 117 | 90 | 87 |  |  |  | COc1ccc(-c2n[nH]c(-c3ccccc3)c2CC(=O)NO)cc1OC [14g, 2-[3-(3,4-Dimethoxyphenyl)-5-phenyl-1H-pyrazol-4-yl]ethanehydroxamic acid] | 85 | 99 |
| 4.94 | 52 | 85 | 78 | 8.96 | 105 | 80 | 68 |  |  |  | COc1cccc(-c2n[nH]c(-c3ccccc3)c2CC(=O)NO)c1 [14d, 2-[3-(3-Methoxyphenyl)-5-phenyl-1H-pyrazol-4-yl]ethanehydroxamic acid] | 84 | 104 |
|  |  |  |  | 9.40 | 13 |  |  |  |  | 8.28 | O=C(Cc1c([C@@H]2CCCC[C@@H]2C(=O)O)n[nH]c1-c1cccc(C(=O)O)c1)NO (relative stereo) [16k, 3-[4-[2-(Hydroxyamino)-2-oxo-ethyl]-3-[cis-2-carboxycyclohexyl]-1H-pyrazol-5-yl]benzoic acid] |  |  |
|  |  |  |  | 7.68 | 0.7 |  |  |  |  | 7.84 | O=C(Cc1c(-c2cccc(C(=O)O)c2)[nH]nc1[C@H]1CC[C@@H](C(=O)O)CC1)NO [16m, 3-[3-(Cis-4-Carboxycyclohexyl)-4-[2-(hydroxyamino)-2-oxo-ethyl]-1H-pyrazol-5-yl]benzoic acid] |  |  |
|  |  |  |  | 9.52 | 127 |  |  |  |  | 7.49 | O=C(Cc1c([C@H]2CCCC[C@H]2C(=O)O)n[nH]c1-c1ccccc1)NO (relative stereo) [14q, Cis-2-[4-[2-(hydroxyamino)-2-oxo-ethyl]-5-phenyl-1H-pyrazol-3-yl]cyclohexanecarboxylic acid] |  |  |
|  |  |  |  | 8.30 | 87 |  |  |  |  | 6.36 | Cn1nc(-c2ccccc2)c(CC(=O)NO)c1-c1ccccc1 [21a, 2-(1-Methyl-3,5-diphenyl-pyrazol-4-yl)ethanehydroxamic acid] |  |  |
